Assay results taken from patent US20200171065A1, “METHOD FOR TREATING LIVER DISEASE WITH KINSENOSIDE” (HUAZHONG UNIVERSITY OF SCIENCE AND TECHNOLOGY, priority 2017, published 2020).

Tested on: SD mice with ANIT induced intrahepatic cholestasis
Assay: ANIT-induced intrahepatic cholestasis
Assay type: in vivo
Protocol: 42 SPF SD mice were purchased and raised in the SPF experimental animal center of Tongji Medical College of Huazhong University of Science and Technology. They were provided with standard diet and drinking water. The room temperature was controlled at 23±2° C. After 3 days of adaptive feeding, they were given drugs by intragastric administration. 42 SD mice were randomly divided into 7 groups (normal control group, ANIT model group, KD low-dose group, KD medium dose group, KD high-dose group, UDCA positive control group and KD negative control group), 6 mice in each group were weighed and recorded daily. […] Thereafter, the drug was given again every 24 hours for 3 times, and the animals in each group were fasted (water was provided) after the third time. 72 hours later, the animals were killed and samples were collected.

With `C[C@H](CCC(=O)O)[C@H]1CC[C@H]2[C@@H]3[C@@H](O)C[C@@H]4C[C@H](O)CC[C@]4(C)[C@H]3CC[C@]12C` [UDCA, reference compound] the plasma color (KD 50, 100, 200 mg/kg or UDCA 80 mg/kg by gavage) was “turned light yellow similar to that of the normal control group”, the “hepatic sinusoid and inflammatory cell infiltration (HE staining)” value (different doses of KD, UDCA treatment group) was “normal hepatic sinusoid, obvious hepatocyte gap, and obvious recovery of inflammatory cell infiltration” and the “plasma ALT, AST, AKP, TBIL and DBIL” value (low, medium and high doses of KD, 80 mg/kg UDCA) was “can significantly reduce ALT, AST, AKP, TBIL and DBIL”. For the same compound, the “plasma TBA” value (medium and high doses of KD, 80 mg/kg UDCA) was “can significantly reduce TBA”.
